Measured values from article PMC10774418, “A cyclin D1 intrinsically disordered domain accesses modified histone motifs to govern gene transcription” (Oncogenesis, 2024).

How the values were obtained:
CDK4 = test: Mammalian two-hybrid, 293 T; assay type: cell-based, human; conditions: 293 T cells, Fig. S7
Procedure: Mammalian two-hybrid was conducted following the manufacturer’s instruction (Promega, Madison, WI). The human CDK4 cDNA was cloned into pBIND vector, and the human cyclin D1 cDNA (wild type or mutants) was cloned into pACT vector to generate fusion proteins with the DNA-binding domain of Gal4 (Gal4-CDK4), and the activation domain of VP16 (VP16-cyclin D1), respectively. Gal4-CDK4, VP16-cyclin D1 and pG5-Luc reporter containing five copies of Gal4 binding sites upstream of a minimal TATA box and the firefly luciferase gene (Promega) were co-transfected into MCF-7 or HEK-293T cells with Superfect reagent 48 h after transfection, the cells were lysed, and the amount of luciferase activity was quantitated. Transfection efficiency was normalized using renilla luciferase.

[1] = test system: γ-H2AX in cyclin D1^-/- rescue MEFs; test: γ-H2AX abundance / H2A Ser139 phosphorylation after doxorubicin; assay type: cell-based, mouse; conditions: cyclin D1^WT rescued cyclin D1^-/- MEFs, p20 and p21, Western blot
Procedure: Whole-cell lysates (50 μg) were separated by 10% SDS-PAGE gel, and the proteins were transferred to nitrocellulose membrane for Western blotting using the following antibodies: anti-FLAG antibody (M2 Aldrich, #F1804, St. Louis, MO), anti-GST (Cell Signaling, #2624, Danvers, MA), anti-β-tubulin (Santa Cruz Biotechnology, #sc-55529, Santa Cruz, CA), anti-Vinculin (Sigma-Aldrich, #V9131 St. Louis, MO), Topoisomerase 2 A (Santa Cruz Biotechnology, #sc-365916, Santa Cruz, CA), Histone 2B Serine 14 P (Santa Cruz Biotechnology, #sc-31671, Santa Cruz, CA), Histone 2B (Santa Cruz Biotechnology, #sc-10808, Santa Cruz, CA), γH2A.X (Cell Signaling, #9718, Danvers, MA) and H2A.X (Cell Signaling, #2595, Danvers, MA).

[2] = test system: cyclin D1-/- 3T3 rescue cells; test: Etoposide sensitivity (cell viability); assay type: cell-based, mouse; conditions: 5, 10 µM, 24 h, N=6

Compound | CDK4 binding (CDK4) | other results
E278/280 A: cyclin D1 double point mutant within the E region | maintained enhanced binding | –
E280A: cyclin D1 point mutant within the E region | maintained enhanced binding | –
COc1cccc2c1C(=O)c1c(O)c3c(c(O)c1C2=O)C[C@@](O)(C(=O)CO)C[C@@H]3O[C@H]1C[C@H](N)[C@H](O)[C@H](C)O1 [doxorubicin] | – | γ-H2AX abundance [1]: increased
E278A: cyclin D1 point mutant within the E region | maintained enhanced binding | –
COc1cc([C@@H]2c3cc4c(cc3[C@@H](O[C@@H]3O[C@@H]5CO[C@@H](C)O[C@H]5[C@H](O)[C@H]3O)[C@H]3COC(=O)[C@H]23)OCO4)cc(OC)c1O [etoposide] | – | sensitivity to etoposide ([2]; cyclin D1 rescued cells): more sensitive; change in sensitivity to etoposide ([2]; upon deletion of the E domain): modest but significant reduction in sensitivity
